Paper PMC9274761, “Effects of Structurally Different HDAC Inhibitors against Trypanosoma cruzi, Leishmania, and Schistosoma mansoni” (ACS Infectious Diseases, 2022)
pIC50: −log10 of the molar value. “And” between values parts separate entries of the source, which are not always exact repeats. Equal values may be shown once.

Experiments:
HDAC3 = HDAC3 (Homo sapiens, UniProt O15379); experiment: HDAC3 protease-coupled fluorescence (AMC) inhibition assay; assay type: biochemical; details: hr enzyme, 10-dose, 3-fold dilution from 50 μM (3: from 300 μM); read-out: IC50 against HDAC3
Chain of HDAC3 (O15379 whole entry): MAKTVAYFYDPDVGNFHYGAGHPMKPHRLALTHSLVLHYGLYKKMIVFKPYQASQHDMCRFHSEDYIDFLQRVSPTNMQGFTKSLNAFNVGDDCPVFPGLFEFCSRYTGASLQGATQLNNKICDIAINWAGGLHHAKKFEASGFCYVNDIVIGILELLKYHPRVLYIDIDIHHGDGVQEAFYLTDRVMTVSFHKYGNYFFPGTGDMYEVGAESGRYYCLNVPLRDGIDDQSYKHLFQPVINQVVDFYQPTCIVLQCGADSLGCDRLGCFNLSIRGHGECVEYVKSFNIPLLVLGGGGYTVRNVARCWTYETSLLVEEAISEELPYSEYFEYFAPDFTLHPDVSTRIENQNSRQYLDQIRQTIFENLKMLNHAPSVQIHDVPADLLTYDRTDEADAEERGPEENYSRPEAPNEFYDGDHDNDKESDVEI
Chain of HDAC3 (Q9Y618 395-489 partner limits assumed): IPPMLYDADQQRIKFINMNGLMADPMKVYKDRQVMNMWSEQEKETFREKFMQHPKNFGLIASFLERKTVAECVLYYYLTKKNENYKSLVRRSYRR
Source text: (§1) The new hydroxamates 2 and 6 were screened and profiled via a protease-coupled assay in which the quantification of HDAC enzyme activity is based on the formation of a free fluorescent group, the 7-amino-4-methyl coumarin (AMC).[42] […] After deacetylation by HDACs, the de(trifluoro)acetylated AMC–peptides were sensitive toward lysine peptidase and free fluorogenic AMC was generated and quantified.[42]
(§2) To gain insights into its inhibition profile for human HDACs, we tested 3 against hrHDACs 1–6 and 8 following the above procedure (Table 1).
(§3) Individual IC50 values for each HDAC isozyme were measured with the homogeneous fluorescence release HDAC assay.[42]

HDAC5 = HDAC5 (Homo sapiens, UniProt Q9UQL6); experiment: HDAC5 protease-coupled fluorescence (AMC) inhibition assay; assay type: biochemical; details: for pIC50: hr enzyme, class IIa substrate Boc-Lys(trifluoroacetyl)-AMC, read-out: IC50 against HDAC5
Chain of HDAC5 (Q9UQL6 whole entry): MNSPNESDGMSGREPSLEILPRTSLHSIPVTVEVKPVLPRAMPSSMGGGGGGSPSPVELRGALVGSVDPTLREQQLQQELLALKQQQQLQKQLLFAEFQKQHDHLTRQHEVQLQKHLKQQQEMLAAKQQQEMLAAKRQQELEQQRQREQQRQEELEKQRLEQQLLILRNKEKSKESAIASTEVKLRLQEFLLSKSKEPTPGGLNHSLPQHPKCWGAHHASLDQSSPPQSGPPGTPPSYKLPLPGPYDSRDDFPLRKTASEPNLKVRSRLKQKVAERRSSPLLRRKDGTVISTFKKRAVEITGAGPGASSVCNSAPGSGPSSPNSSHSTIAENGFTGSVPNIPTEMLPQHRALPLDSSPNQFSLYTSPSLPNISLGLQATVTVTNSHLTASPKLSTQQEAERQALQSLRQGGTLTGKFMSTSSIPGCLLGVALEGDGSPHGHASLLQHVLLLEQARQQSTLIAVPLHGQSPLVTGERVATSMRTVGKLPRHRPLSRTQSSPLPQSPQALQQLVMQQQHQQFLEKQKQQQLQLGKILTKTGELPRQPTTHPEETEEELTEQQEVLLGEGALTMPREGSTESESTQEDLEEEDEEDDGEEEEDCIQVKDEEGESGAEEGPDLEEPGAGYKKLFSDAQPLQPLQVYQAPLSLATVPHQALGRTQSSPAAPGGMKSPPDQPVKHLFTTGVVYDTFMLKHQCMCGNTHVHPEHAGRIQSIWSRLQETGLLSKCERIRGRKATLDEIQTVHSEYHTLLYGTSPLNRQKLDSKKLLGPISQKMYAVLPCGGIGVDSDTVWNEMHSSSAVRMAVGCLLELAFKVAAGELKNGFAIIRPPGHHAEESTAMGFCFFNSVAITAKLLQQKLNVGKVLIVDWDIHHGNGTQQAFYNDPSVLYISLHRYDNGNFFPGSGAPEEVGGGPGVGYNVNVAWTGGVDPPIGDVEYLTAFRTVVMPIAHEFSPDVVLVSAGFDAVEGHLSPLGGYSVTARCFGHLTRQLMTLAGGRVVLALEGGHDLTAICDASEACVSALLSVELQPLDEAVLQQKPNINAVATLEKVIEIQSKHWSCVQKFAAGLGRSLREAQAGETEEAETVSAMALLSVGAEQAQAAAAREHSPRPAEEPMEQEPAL
Source text: as §1, §2, §3

HDAC7 = HDAC7 (Homo sapiens, UniProt Q8WUI4); experiment: HDAC7 protease-coupled fluorescence (AMC) inhibition assay; assay type: biochemical; details: hr enzyme, class IIa substrate; read-out: IC50 against HDAC7
Chain of HDAC7 (Q8WUI4 whole entry): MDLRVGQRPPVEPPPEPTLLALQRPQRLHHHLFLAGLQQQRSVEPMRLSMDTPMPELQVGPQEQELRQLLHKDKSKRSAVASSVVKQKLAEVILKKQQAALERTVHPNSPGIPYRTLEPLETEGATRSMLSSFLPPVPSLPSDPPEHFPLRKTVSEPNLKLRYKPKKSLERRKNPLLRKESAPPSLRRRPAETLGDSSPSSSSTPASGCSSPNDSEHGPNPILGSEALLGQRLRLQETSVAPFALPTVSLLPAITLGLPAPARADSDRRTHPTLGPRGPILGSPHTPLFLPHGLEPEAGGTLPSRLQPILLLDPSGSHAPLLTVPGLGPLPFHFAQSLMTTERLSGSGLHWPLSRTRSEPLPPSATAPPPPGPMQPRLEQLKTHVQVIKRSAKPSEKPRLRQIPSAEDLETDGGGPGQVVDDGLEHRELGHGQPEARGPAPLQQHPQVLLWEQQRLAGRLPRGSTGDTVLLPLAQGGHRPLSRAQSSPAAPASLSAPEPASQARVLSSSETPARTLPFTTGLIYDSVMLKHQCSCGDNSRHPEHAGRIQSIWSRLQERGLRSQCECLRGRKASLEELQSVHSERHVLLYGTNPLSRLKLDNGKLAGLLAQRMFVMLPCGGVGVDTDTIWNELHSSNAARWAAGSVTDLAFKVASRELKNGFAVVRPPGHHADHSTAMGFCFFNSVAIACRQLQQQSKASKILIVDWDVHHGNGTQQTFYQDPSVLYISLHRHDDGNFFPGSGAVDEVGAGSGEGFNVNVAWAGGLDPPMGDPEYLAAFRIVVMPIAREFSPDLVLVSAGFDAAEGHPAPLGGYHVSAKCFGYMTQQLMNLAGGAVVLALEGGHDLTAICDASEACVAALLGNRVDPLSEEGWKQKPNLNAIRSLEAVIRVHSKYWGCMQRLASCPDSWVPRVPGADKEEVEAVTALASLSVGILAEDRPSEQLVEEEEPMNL
Method: as §1, §3

HDAC9 = HDAC9 (Homo sapiens, UniProt Q9UKV0); experiment: HDAC9 protease-coupled fluorescence (AMC) inhibition assay; assay type: biochemical; details: hr enzyme, class IIa substrate; read-out: IC50 against HDAC9
Chain of HDAC9 (Q9UKV0 whole entry): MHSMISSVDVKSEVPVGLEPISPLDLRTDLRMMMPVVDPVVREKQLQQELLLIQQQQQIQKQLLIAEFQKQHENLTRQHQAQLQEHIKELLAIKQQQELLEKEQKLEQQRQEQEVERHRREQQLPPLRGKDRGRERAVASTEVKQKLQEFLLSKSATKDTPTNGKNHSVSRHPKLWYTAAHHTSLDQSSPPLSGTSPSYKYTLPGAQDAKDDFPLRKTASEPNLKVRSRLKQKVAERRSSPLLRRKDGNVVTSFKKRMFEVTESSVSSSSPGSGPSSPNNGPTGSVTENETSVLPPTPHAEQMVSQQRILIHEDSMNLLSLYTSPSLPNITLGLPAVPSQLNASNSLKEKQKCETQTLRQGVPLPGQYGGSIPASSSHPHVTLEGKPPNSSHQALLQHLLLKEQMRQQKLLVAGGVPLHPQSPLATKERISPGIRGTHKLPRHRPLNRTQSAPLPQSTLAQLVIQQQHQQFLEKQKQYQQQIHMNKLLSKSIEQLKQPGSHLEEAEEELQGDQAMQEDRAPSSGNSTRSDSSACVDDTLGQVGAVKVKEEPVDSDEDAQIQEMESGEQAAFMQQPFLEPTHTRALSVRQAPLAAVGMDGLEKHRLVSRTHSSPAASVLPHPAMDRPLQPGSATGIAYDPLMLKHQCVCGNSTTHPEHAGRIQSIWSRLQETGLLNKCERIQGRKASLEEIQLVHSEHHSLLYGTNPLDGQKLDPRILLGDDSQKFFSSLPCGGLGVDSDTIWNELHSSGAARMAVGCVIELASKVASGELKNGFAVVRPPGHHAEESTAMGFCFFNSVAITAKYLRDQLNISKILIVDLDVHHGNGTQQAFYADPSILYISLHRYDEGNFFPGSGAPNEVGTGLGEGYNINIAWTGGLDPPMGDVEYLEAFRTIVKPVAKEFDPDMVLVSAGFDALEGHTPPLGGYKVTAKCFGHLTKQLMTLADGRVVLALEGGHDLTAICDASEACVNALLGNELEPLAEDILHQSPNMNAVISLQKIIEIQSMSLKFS
Method: as §1, §3

[1] = system: newly transformed schistosomula (NTS); experiment: Phenotypic screening on newly transformed schistosomula (NTS); assay type: cell-based, Schistosoma mansoni; details: for pIC50: Schistosoma mansoni, 72 h, read-out: IC50, viability of NTS
in vitro = details: mouse, noninfected L929 fibroblast cells

Structure (SMILES) | pIC50 (HDAC3) | pIC50 (HDAC5) | pIC50 (HDAC7) | pIC50 (HDAC9) | percentage of NTS activity, 72 h ([1]; 10 μM) | percentage of NTS activity, 72 h ([1]; 20 μM) | pIC50 [1] | CC50 at 96 h (in vitro) | fold more potent against HDAC5 than against HDAC4 (HDAC5; ratio of IC50 HDAC4 / HDAC5)
O=C(/C=C/c1ccc(CSc2nc(Cl)cc(-c3ccccc3)n2)cc1)NO [Compound 2, 3-(4-(((4-Chloro-6-phenylpyrimidin-2-yl)thio)methyl)phenyl)-N-hydroxy Acrylamide] | 6.28 | 4.64 | < 4.30 | < 4.30 | 39.7 ± 0.9% | 70% and 67.31 ± 2.9% | 4.89 | 20 µM | –
CN(C)Cc1ccc(S(=O)(=O)n2ccc3cc(/C=C/C(=O)NO)ccc32)cc1 [Compound 6, 3-(1-((4-((Dimethylamino)methyl)phenyl)sulfonyl)-1H-indol-5-yl)-N-hydroxy Acrylamide] | 6.42 | 5.46 | < 4.30 | 4.51 | 20.9 ± 0.9% | 22.8 ± 1.0% | < 4.70 | 5 µM | 5 fold
